Key:
Test in all cases: Antibiotic Sensitivity
Type in all cases: cell-based
Kleb. aerogenes 22352 = system: Kleb. aerogenes 22352; further: key: R: resistant; S: sensitive; SS: slightly sensitive
Pr. mirabilis 25942 = system: Pr. mirabilis 25942
E. coli 559 = system: E. coli 559; further: key: R: resistant; S: sensitive; SS: slightly sensitive
Staph. albus 473 = system: Staph. albus 473; further: key: R: resistant; S: sensitive; SS: slightly sensitive
E. coli 604 = system: E. coli 604; further: key: R: resistant; S: sensitive; SS: slightly sensitive
Ps. aeruginosa 1999 = system: Ps. aeruginosa 1999; further: key: R: resistant; S: sensitive; SS: slightly sensitive
Staph. pyogenes = system: Staph. pyogenes; further: key: R: resistant; S: sensitive; SS: slightly sensitive
Ps. multivorans MB = system: Ps. multivorans MB; further: key: R: resistant; S: sensitive; SS: slightly sensitive
Proteus 20523 = system: Proteus 20523
E. coli 9395 = system: E. coli 9395; further: key: R: resistant; S: sensitive; SS: slightly sensitive
Ps. multivorans BS = system: Ps. multivorans BS; further: key: R: resistant; S: sensitive; SS: slightly sensitive
Staph. albus 479 = system: Staph. albus 479; further: key: R: resistant; S: sensitive; SS: slightly sensitive
Staph. albus 476 = system: Staph. albus 476; further: key: R: resistant; S: sensitive; SS: slightly sensitive
Kleb, acrogenes 8172 = system: Kleb, acrogenes 8172; further: key: R: resistant; S: sensitive; SS: slightly sensitive
E. coli 026 = system: E. coli 026; further: key: R: resistant; S: sensitive; SS: slightly sensitive
Proteus 20029 = system: Proteus 20029
Staph. aureus 590 = system: Staph. aureus 590; further: key: R: resistant; S: sensitive; SS: slightly sensitive
Strep. faecalis 20190 = system: Strep. faecalis 20190; further: key: R: resistant; S: sensitive; SS: slightly sensitive
Pr. rettgeri 7475 = system: Pr. rettgeri 7475; further: key: R: resistant; S: sensitive; SS: slightly sensitive
Ps. aeruginosa 5267 = system: Ps. aeruginosa 5267; further: key: R: resistant; S: sensitive; SS: slightly sensitive
Coliform 518 = system: Coliform 518; further: key: R: resistant; S: sensitive; SS: slightly sensitive
Staph. aureus 20477 = system: Staph. aureus 20477; further: key: R: resistant; S: sensitive; SS: slightly sensitive
Proteus 20531 = system: Proteus 20531
Serratia marcescens = system: Serratia marcescens; further: key: R: resistant; S: sensitive; SS: slightly sensitive
Candida albicans = system: Candida albicans; further: key: R: resistant; S: sensitive; SS: slightly sensitive
Proteus 371 = system: Proteus 371
Staph. albus 474 = system: Staph. albus 474; further: key: R: resistant; S: sensitive; SS: slightly sensitive
Pr. miribilis 25702 = system: Pr. miribilis 25702; further: key: R: resistant; S: sensitive; SS: slightly sensitive
Strep. faecalia 559 = system: Strep. faecalia 559; further: key: R: resistant; S: sensitive; SS: slightly sensitive
Proteus 20522 = system: Proteus 20522
Pr. vulgaris 4635 = system: Pr. vulgaris 4635; further: key: R: resistant; S: sensitive; SS: slightly sensitive
Coliform 578 = system: Coliform 578; further: key: R: resistant; S: sensitive; SS: slightly sensitive
Coliform 608 = system: Coliform 608; further: key: R: resistant; S: sensitive; SS: slightly sensitive
Pr. mirabilis 5887 = system: Pr. mirabilis 5887
E. coli 566 = system: E. coli 566; further: key: R: resistant; S: sensitive; SS: slightly sensitive
Staph. aureus 7447 = system: Staph. aureus 7447; further: key: R: resistant; S: sensitive; SS: slightly sensitive

Structure (SMILES)	Antibiotic Sensitivity (Kleb. aerogenes 22352)	Antibiotic Sensitivity (E. coli 559)	Antibiotic Sensitivity (Staph. albus 473)	Antibiotic Sensitivity (E. coli 604)	Antibiotic Sensitivity (Ps. aeruginosa 1999)	Antibiotic Sensitivity (Staph. pyogenes)	Antibiotic Sensitivity (Ps. multivorans MB)	Antibiotic Sensitivity (E. coli 9395)	Antibiotic Sensitivity (Ps. multivorans BS)	Antibiotic Sensitivity (Staph. albus 479)	Antibiotic Sensitivity (Staph. albus 476)	Antibiotic Sensitivity (Kleb, acrogenes 8172)	Antibiotic Sensitivity (E. coli 026)	Antibiotic Sensitivity (Staph. aureus 590)	Antibiotic Sensitivity (Strep. faecalis 20190)	Antibiotic Sensitivity (Pr. rettgeri 7475)	Antibiotic Sensitivity (Ps. aeruginosa 5267)	Antibiotic Sensitivity (Coliform 518)	Antibiotic Sensitivity (Staph. aureus 20477)	Antibiotic Sensitivity (Serratia marcescens)	further results
Oc1ccc(Cl)c2cccnc12 [CHQ, 5-chloro-8-hydroxyquinoline]	S	S	S	S	R	S	S	S	S	S	S	S	S	S	S	S	R	S	S	S	Antibiotic Sensitivity (Pr. mirabilis 25942): S; Antibiotic Sensitivity (Proteus 20523): S; Antibiotic Sensitivity (Proteus 20029): S; Antibiotic Sensitivity (Proteus 20531): S; Antibiotic Sensitivity (Candida albicans): S; Antibiotic Sensitivity (Proteus 371): S; Antibiotic Sensitivity (Staph. albus 474): S; Antibiotic Sensitivity (Pr. miribilis 25702): S; Antibiotic Sensitivity (Strep. faecalia 559): S; Antibiotic Sensitivity (Proteus 20522): S; Antibiotic Sensitivity (Pr. vulgaris 4635): S; Antibiotic Sensitivity (Coliform 578): S; Antibiotic Sensitivity (Coliform 608): S; Antibiotic Sensitivity (Pr. mirabilis 5887): S; Antibiotic Sensitivity (E. coli 566): S; Antibiotic Sensitivity (Staph. aureus 7447): S
CN(C)[C@@H]1C(=O)C(C(N)=O)=C(O)[C@@]2(O)C(=O)C3=C(O)c4c(O)cccc4[C@@](C)(O)[C@H]3C[C@@H]12 [Tetracycline, tetracycline]	S	S	R	S	S	R	S	S	S	R	R	S	R	R	R	S	S	S	R	S	Antibiotic Sensitivity (Candida albicans): R; Antibiotic Sensitivity (Staph. albus 474): R; Antibiotic Sensitivity (Pr. miribilis 25702): S; Antibiotic Sensitivity (Strep. faecalia 559): R; Antibiotic Sensitivity (Pr. vulgaris 4635): S; Antibiotic Sensitivity (Coliform 578): S; Antibiotic Sensitivity (Coliform 608): S; Antibiotic Sensitivity (E. coli 566): S; Antibiotic Sensitivity (Staph. aureus 7447): S

Source: patent US4038388A, “Antimicrobial compositions” (Paterson Zochonis & Company Limited, priority 1976, dated 1977)
